Source: PMC9837035 (Nature Communications, 2023)
Where “and” joins values, the source holds several entries; their conditions need not be identical. Identical values can stand only once. Like-named read-outs stand apart in the source and are kept apart here.

Legend:
MLL2 [1] = molecular target: MLL2 (Homo sapiens, UniProt O14686); assay: Radioisotope-based methyltransferase assay (selectivity); settings: MLL2, 1 μM SAM
NSD2 = NSD2 (Homo sapiens, UniProt O96028); assay: as above
MLL2 [2] = assay: as above; settings: MLL2, 1 μM SAM
H3K9me2 in HUDEP-2 cells = assay: Western blotting of H3K9me2 in HUDEP-2 cells; assay type: cell-based, human; settings: HUDEP-2, 4 days
Method: Preparation of cell lysates and western blotting were performed as described previously. Protein from cells lysates in lysis buffer (50 mM Tris-HCl (pH 7.5), 150 mM NaCl, 5 mM EDTA, 0.1% NP-40, 1 mM dithiothreitol) were separated by sodium dodecyl sulfate–polyacrylamide gel electrophoresis (SDS-PAGE) and transferred to a polyvinylidene difluoride (PVDF) membrane (Millipore) by electroblotting. The membranes incubated with primary antibodies overnight at 4 °C and secondary antibodies for 1 h at room temperature. The immune complexes were detected with the Immobilon Western Chemiluminescent HRP Substrate (Millipore). Luminescence was analyzed on a FUSION SOLO S (Vilber). Western blot bands were visualized using Evolution Capt software (M&S Instruments Inc.). Primary antibodies used were anti-G9a (1:1000, CST, #3306), anti–α-tubulin (1:5000, Abcam, ab18251), anti-H3K9me2 (1:3000, Abcam, ab1220), anti-H3 (1:5000, Abcam, ab1791), anti-H3K27me3 (1:3000, Sigma, 07-449), anti-GLP (1:1000, CST, #35005), anti-FLAG (100 ng/ml, Fujifilm, 01422383), anti-His (1:5000, MBL, PM032), anti-BCL11A (1:1000, abcam, ab19487), anti-ZBTB7A (1:1000, CST, #50565), anti-CHD3 (1:1000, Novus Biologicals, NB100-60412), and anti-CHD4 (1:1000, abcam, ab240640). Uncropped scans of all of the blots are available in Source Data file.

[3] = tested on: Salmonella typhimurium TA100; assay: Ames test, TA100
Method: The Salmonella mutagenicity assay was performed by pre-incubating the test compounds for 20 min with Salmonella typhimurium strains TA98 and TA100, with and without metabolic activation (S9 mixture).
After this time 2 mL of top agar was added to the mixture and poured on to a plate containing minimum agar. The plates were incubated at 37 °C for 49 h and the His ± revertant colonies were counted manually and automatically by a colony counter (Colony analyzer CA-11D systems, System science Co.,Ltd.). The influence of metabolic activation was tested by adding 500 μL of 10% S9 mixture. All experiments were performed in duplicate. […] DMSO served as the negative control (100 μL/plate). The mutagenic index (MI, the average number of revertants per plate divided by the average number of revertants per plate from the negative control) was also calculated for each dose. A sample was considered positive when the MI was equal to or greater than 2 for at least one of the tested doses.

[4] = Mouse acute toxicity assay, body weight; assay type: in vivo, mice
Method: All animal studies were approved by the Institutional Committee for Animal Experiments of the Institute of Microbial Chemistry, and were performed in accordance with relevant guidelines and regulations to minimize animal suffering. Four-week-old female ICR mice were purchased from Charles River Breeding Laboratories (Yokohama, Japan) and maintained in a specific pathogen-free barrier facility. […] Samples were dissolved in saline containing 10% DMSO and 1% Tween 80 and injected intravenously into mice.

ASH1L = molecular target: T1, ASH1L (Homo sapiens, UniProt Q9NR48); assay: Radioisotope-based methyltransferase assay (selectivity); assay type: biochemical; settings: ASH1L, read-out: IC50
T1 construct: purchased Reaction Biology

EZH2 (Y641F) = EZH2 (Y641F) (Homo sapiens, UniProt Q15910, Y641F); assay: biochemical
EZH2 (Y641F), sequence (Q15910 whole entry Y641F): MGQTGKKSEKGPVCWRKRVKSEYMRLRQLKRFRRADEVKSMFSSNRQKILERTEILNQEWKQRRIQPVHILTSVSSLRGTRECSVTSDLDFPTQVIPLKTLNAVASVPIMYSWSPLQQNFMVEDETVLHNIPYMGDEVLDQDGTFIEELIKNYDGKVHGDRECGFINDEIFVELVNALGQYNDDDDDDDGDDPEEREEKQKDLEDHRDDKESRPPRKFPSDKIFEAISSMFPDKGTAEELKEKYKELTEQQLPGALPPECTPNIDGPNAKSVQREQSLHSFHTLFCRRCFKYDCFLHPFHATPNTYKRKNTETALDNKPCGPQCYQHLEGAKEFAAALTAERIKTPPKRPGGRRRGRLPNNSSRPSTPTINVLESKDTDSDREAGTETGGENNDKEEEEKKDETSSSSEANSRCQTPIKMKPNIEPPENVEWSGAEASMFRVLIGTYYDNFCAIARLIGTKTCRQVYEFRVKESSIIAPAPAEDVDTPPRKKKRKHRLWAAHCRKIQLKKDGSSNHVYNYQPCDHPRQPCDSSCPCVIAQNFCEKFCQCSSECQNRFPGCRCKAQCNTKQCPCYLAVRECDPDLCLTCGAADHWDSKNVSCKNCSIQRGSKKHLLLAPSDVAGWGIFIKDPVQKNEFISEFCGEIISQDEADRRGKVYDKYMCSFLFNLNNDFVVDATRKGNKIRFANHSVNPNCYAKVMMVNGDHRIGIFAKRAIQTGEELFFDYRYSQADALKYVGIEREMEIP
EZH2 (Y641F), sequence (O75530 whole entry partner): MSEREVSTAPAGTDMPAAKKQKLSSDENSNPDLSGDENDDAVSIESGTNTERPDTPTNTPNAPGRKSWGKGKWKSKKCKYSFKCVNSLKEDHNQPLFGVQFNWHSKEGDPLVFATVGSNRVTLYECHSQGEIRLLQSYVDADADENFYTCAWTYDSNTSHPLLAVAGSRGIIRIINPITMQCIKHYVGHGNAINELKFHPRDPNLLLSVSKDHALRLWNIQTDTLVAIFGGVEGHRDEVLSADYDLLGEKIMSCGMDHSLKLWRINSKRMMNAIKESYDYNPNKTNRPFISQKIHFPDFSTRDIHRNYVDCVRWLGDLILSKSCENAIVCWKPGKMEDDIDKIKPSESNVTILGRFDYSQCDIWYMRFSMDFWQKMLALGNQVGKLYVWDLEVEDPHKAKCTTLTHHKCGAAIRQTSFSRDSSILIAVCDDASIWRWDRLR
EZH2 (Y641F), sequence (Q15022 whole entry partner): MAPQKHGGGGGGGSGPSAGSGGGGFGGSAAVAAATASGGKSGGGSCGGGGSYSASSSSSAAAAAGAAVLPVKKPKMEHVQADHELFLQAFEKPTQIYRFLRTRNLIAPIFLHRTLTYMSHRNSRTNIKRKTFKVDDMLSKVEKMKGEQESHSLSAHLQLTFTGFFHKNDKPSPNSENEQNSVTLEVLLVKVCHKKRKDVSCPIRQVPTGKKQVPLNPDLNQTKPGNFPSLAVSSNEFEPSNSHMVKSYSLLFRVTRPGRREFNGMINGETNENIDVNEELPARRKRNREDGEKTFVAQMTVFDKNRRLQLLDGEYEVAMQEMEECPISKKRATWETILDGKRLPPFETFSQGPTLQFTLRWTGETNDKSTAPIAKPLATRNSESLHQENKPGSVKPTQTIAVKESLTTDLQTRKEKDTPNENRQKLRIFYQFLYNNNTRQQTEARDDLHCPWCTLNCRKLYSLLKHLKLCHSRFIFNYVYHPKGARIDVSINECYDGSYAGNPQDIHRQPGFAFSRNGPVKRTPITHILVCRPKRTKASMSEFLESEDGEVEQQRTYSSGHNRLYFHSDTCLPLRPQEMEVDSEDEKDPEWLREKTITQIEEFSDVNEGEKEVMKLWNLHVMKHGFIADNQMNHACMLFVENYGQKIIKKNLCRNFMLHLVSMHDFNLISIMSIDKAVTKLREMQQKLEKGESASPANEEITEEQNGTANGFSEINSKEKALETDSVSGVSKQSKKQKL
EZH2 (Y641F), sequence (Q09028 whole entry partner): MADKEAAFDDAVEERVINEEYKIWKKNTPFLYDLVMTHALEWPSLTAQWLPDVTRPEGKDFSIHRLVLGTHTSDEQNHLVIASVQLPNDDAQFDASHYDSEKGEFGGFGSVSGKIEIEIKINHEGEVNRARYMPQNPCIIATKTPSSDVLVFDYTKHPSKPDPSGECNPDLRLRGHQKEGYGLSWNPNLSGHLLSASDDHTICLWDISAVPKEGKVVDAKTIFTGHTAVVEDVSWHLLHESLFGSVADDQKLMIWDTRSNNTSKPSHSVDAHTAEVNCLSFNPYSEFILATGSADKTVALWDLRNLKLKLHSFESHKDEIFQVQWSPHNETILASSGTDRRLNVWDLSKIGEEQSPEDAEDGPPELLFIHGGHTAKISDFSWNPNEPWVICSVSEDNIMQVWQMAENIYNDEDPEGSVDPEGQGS
EZH2 (Y641F), sequence (Q6ZN18 whole entry partner): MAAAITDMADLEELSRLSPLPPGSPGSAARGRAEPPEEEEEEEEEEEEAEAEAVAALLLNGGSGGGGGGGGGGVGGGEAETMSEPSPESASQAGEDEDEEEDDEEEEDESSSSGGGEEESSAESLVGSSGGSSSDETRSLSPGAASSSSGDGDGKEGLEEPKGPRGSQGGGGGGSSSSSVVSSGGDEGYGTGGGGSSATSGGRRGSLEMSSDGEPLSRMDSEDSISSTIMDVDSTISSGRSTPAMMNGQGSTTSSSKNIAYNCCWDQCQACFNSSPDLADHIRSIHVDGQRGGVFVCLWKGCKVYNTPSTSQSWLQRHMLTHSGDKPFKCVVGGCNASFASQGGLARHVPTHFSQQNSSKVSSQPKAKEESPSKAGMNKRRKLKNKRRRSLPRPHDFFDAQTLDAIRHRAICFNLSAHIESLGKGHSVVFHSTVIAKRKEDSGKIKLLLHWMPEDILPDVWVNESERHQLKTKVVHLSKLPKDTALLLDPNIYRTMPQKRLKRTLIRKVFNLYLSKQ

NSD2, sequence (O96028 whole entry): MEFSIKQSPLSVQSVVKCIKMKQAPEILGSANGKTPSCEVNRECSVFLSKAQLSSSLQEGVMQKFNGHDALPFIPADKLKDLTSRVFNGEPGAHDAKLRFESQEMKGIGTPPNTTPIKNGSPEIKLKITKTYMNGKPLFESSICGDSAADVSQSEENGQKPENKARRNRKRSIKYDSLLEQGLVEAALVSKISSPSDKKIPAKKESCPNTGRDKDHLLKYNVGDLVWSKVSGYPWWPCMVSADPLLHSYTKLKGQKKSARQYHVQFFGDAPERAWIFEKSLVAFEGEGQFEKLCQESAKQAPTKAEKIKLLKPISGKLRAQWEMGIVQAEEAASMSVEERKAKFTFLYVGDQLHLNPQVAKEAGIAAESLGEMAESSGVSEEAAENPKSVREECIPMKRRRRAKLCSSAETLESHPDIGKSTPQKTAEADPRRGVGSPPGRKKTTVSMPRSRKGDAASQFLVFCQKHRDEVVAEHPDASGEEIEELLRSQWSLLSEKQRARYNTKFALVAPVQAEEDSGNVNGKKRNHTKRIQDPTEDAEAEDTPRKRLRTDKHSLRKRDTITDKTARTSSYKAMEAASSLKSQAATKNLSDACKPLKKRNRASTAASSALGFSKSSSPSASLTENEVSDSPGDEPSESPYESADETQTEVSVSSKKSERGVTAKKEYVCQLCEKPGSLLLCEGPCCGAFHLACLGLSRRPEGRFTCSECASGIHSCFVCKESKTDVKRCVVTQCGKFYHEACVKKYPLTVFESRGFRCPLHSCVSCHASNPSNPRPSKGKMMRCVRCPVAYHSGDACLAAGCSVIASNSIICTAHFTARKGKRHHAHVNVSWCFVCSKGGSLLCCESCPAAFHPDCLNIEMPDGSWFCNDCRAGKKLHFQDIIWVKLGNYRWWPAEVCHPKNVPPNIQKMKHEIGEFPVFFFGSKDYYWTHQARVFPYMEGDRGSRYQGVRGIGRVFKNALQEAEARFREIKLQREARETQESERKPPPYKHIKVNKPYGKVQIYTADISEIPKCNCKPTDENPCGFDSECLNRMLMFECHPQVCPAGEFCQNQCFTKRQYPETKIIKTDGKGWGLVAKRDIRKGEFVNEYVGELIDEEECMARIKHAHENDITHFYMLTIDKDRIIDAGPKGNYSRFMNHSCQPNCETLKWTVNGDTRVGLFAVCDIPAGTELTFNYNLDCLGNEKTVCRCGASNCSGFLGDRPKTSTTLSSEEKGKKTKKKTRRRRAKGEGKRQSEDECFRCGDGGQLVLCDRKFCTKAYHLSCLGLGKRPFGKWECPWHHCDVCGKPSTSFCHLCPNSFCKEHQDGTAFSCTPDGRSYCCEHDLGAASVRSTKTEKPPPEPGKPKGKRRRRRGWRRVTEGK

Nc1ncnc2c1ncn2[C@@H]1O[C@H](CSCC[C@H](N)C(=O)O)[C@@H](O)[C@H]1O [SAH, S-(5'-Adenosyl)-L-homocysteine, reference compound]
IC50 (MLL2 [1]): 11.6 µM

Cc1c(C(=O)NC(CCC2CC2)C(=O)Nc2ccc(C#N)cc2)[nH]c2c1C(=O)CC(C)(C)C2 (stereo not drawn) [RK-701]
IC50 (NSD2): > 100 µM | IC50 (MLL2 [2]): > 100 µM | cellular H3K9me2 levels (H3K9me2 in HUDEP-2 cells): dose-dependent reduction | Number of reverants/plate ([3]; TA100, + S9, base pair substitution mutation, 4.88 μg/plate): 107 and 119 | Number of reverants/plate ([3]; TA100, + S9, base pair substitution mutation, 19.5 μg/plate): 117 and 120 | Number of reverants/plate ([3]; TA100, + S9, base pair substitution mutation, 78.1 μg/plate): 117 and 128 | Number of reverants/plate ([3]; TA100, + S9, base pair substitution mutation, 313 μg/plate): 97 and 127 | Number of reverants/plate ([3]; TA100, + S9, base pair substitution mutation, 1250* μg/plate): 98 and 121 | Number of reverants/plate ([3]; TA100, + S9, base pair substitution mutation, 2500* μg/plate): 117 and 90 | Number of reverants/plate ([3]; TA100, + S9, base pair substitution mutation, 5000* μg/plate): 111 and 110 | Number of revertants/plate ([3]; TA100, +S9, 4.88 μg/plate): 113 | Number of revertants/plate ([3]; TA100, +S9, 19.5 μg/plate): 119 | Number of revertants/plate ([3]; TA100, +S9, 78.1 μg/plate): 123 | Number of revertants/plate ([3]; TA100, +S9, 313 μg/plate): 112 | Number of revertants/plate ([3]; TA100, +S9, 1250 μg/plate, insoluble material): 110 | Number of revertants/plate ([3]; TA100, +S9, 2500 μg/plate, insoluble material): 104 | Number of revertants/plate ([3]; TA100, +S9, 5000 μg/plate, insoluble material): 111 | Number of reverants/plate ([3]; TA100, - S9, base pair substitution mutation, 4.88 μg/plate): 110 and 135 | Number of reverants/plate ([3]; TA100, - S9, base pair substitution mutation, 19.5 μg/plate): 102 and 108 | Number of reverants/plate ([3]; TA100, - S9, base pair substitution mutation, 78.1 μg/plate): 90 and 106 | Number of reverants/plate ([3]; TA100, - S9, base pair substitution mutation, 313 μg/plate): 125 and 110 | Number of reverants/plate ([3]; TA100, - S9, base pair substitution mutation, 1250* μg/plate): 99 and 94 | Number of reverants/plate ([3]; TA100, - S9, base pair substitution mutation, 2500* μg/plate): 98 and 108 | Number of reverants/plate ([3]; TA100, - S9, base pair substitution mutation, 5000* μg/plate): 93 and 98 | Number of revertants/plate ([3]; TA100, -S9, 4.88 μg/plate): 123 | Number of revertants/plate ([3]; TA100, -S9, 19.5 μg/plate): 105 | Number of revertants/plate ([3]; TA100, -S9, 78.1 μg/plate): 98 | Number of revertants/plate ([3]; TA100, -S9, 313 μg/plate): 118 | Number of revertants/plate ([3]; TA100, -S9, 1250 μg/plate, insoluble material): 97 | Number of revertants/plate ([3]; TA100, -S9, 2500 μg/plate, insoluble material): 103 | Number of revertants/plate ([3]; TA100, -S9, 5000 μg/plate, insoluble material): 96 | mutagenicity ([3]; TA100, regardless of metabolic activation): no mutagenicity | The body weight of individual mice ([4]; 12.5 mg/kg, Day0): 24.94 g | The body weight of individual mice ([4]; 12.5 mg/kg, Day1): 24.39 g | The body weight of individual mice ([4]; 12.5 mg/kg, Day3): 26.32 g and 24.79 g | The body weight of individual mice ([4]; 12.5 mg/kg, Day5): 26.12 g and 25.27 g and 26.24 g | The body weight of individual mice ([4]; 12.5 mg/kg, Day7): 26.84 g and 25.44 g and 25.63 g | The body weight of individual mice ([4]; 12.5 mg/kg, Day9): 26.98 g and 26.32 g and 26.65 g | The body weight of individual mice ([4]; 12.5 mg/kg, Day11): 27.95 g and 26.07 g and 25.28 g | The body weight of individual mice ([4]; 12.5 mg/kg, Day14): 27.71 g and 26.81 g and 27.50 g | The body weight of individual mice ([4]; 25 mg/kg, Day0): 23.49 g and 24.32 g and 24.36 g | The body weight of individual mice ([4]; 25 mg/kg, Day1): 23.24 g and 25.05 g and 21.93 g | The body weight of individual mice ([4]; 25 mg/kg, Day2): 24.39 g and 26.13 g and 23.16 g | The body weight of individual mice ([4]; 25 mg/kg, Day3): 24.09 g and 26.66 g and 23.50 g | The body weight of individual mice ([4]; 25 mg/kg, Day4): 24.79 g and 27.09 g and 24.50 g | The body weight of individual mice ([4]; 25 mg/kg, Day5): 25.11 g and 26.53 g and 25.43 g | The body weight of individual mice ([4]; 25 mg/kg, Day7): 25.92 g and 26.25 g and 25.57 g | The body weight of individual mice ([4]; 25 mg/kg, Day9): 25.69 g and 26.57 g and 26.31 g | The body weight of individual mice ([4]; 25 mg/kg, Day11): 26.68 g and 27.09 g and 27.51 g | The body weight of individual mice ([4]; 25 mg/kg, Day14): 26.24 g and 26.26 g and 28.11 g | The body weight of individual mice ([4]; 50 mg/kg, Day0): 22.18 g and 23.36 g and 23.10 g | The body weight of individual mice ([4]; 50 mg/kg, Day1): 22.71 g and 22.55 g and 24.93 g | The body weight of individual mice ([4]; 50 mg/kg, Day2): 23.39 g and 22.67 g and 25.00 g | The body weight of individual mice ([4]; 50 mg/kg, Day3): 24.41 g and 22.89 g and 25.00 g | The body weight of individual mice ([4]; 50 mg/kg, Day4): 24.33 g and 23.75 g and 26.48 g | The body weight of individual mice ([4]; 50 mg/kg, Day5): 24.37 g and 24.57 g and 26.83 g | The body weight of individual mice ([4]; 50 mg/kg, Day7): 25.33 g and 23.96 g and 27.23 g | The body weight of individual mice ([4]; 50 mg/kg, Day9): 25.95 g and 24.94 g and 26.92 g | The body weight of individual mice ([4]; 50 mg/kg, Day11): 26.83 g and 25.42 g and 28.13 g | The body weight of individual mice ([4]; 50 mg/kg, Day14): 27.45 g and 26.37 g and 28.85 g | The body weight of individual mice ([4]; 100 mg/kg, Day0): 22.92 g and 23.08 g and 22.86 g | The body weight of individual mice ([4]; 100 mg/kg, Day1): 21.12 g and 23.93 g and 21.40 g | The body weight of individual mice ([4]; 100 mg/kg, Day2): 22.69 g and 24.09 g and 22.95 g | The body weight of individual mice ([4]; 100 mg/kg, Day3): 23.07 g | acute toxicity, body weight ([4]; mouse, in vivo, iv): no significant body weight loss | IC50 (ASH1L; 1 μM SAM): 79.4 µM | IC50 (ASH1L; RK-701 in duplicate): 80.4 µM and 78.4 µM | IC50 (EZH2 (Y641F)): > 100 µM
